Measurements reported in paper PMC12163822, “Synthesis and Pharmacological Characterization of a Novel Cannabinoid Receptor 1 Antagonist” (ACS Omega, 2025).

Biological target: T1, CB1 receptor (Mus musculus, UniProt P47746)
T1 construct: fresh frozen sections from brain samples from wild-type; from tissue; host or cells: Swiss mouse brain sections
Assay: Functional [35S]GTPγS autoradiography in mouse brain slices
Type: biochemical, Swiss mice
Conditions: for [35S]GTPγS binding, Stimulation (% over basal), CP55,940 + UVI3502 / [35S]GTPγS binding, Stimulation (% over basal): mouse; for [35S]GTPγS binding, Stimulation (% over basal), CP55,940 + UVI3502: CP55,940 and UVI3502 both at 10 µM; for [35S]GTPγS binding, Stimulation (% over basal): compound alone 10 µM
Procedure: All brain sections were air-dried for 30 min and then immersed in Coplin jars for preincubation (4 times, 15 min each time) in an HEPES-based buffer (50 mM HEPES, 100 mM NaCl, 3 mM MgCl2, 0.2 mM EGTA, 0.5% BSA; pH 7.4) at 30 °C. The objective of this preincubation was the removal of endogenous ligands. […] Basal [^35S]-GTPγS binding was defined in the absence of the agonists in two consecutive slices. To define nonspecific binding, 10 μM of unlabeled GTPγS was added to the incubation in another section. Following incubation, slices were twice washed in an ice-cold 50 mM HEPES buffer (pH 7.4), dried, and exposed for 48 h to β-radiation sensitive film with a set of [^14C] standards calibrated for [^35S]. Calibrated films were scanned and quantified using Fiji software (Fiji, Bethesda, […], USA). The signal corresponding to nonspecific binding was previously subtracted from the basal and agonist-stimulated binding. Then, the data was expressed as the percentage of stimulation over basal following the formula: ([^35S]-GTPγS agonist-stimulated binding) × 100/([^35S]-GTPγS basal binding)-100.

[1] = nucleus basalis magnocellularis

T1 sequence (P47746 whole entry): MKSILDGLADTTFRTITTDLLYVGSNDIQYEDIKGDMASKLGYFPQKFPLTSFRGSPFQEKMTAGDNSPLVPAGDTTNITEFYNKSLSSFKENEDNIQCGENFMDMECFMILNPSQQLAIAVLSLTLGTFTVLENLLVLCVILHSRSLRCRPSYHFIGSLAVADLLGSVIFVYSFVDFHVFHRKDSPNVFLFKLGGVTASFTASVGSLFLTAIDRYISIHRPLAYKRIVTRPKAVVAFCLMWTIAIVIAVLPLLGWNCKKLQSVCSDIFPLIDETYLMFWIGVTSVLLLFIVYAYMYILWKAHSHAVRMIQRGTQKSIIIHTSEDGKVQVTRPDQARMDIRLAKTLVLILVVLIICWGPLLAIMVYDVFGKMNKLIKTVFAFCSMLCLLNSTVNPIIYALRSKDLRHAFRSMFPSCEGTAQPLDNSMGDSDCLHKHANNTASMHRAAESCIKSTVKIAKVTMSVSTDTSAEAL

CCOC(=O)/C=C1\C(=O)Nc2ccc(C)cc2-c2c1c1cc(OC)ccc1n2C(=O)OCC [UVI3502]
activity on CP55,940-evoked [35S]GTPγS stimulation (mouse brain slices, 10 µM, result in words): acts as an antagonist | [35S]GTPγS binding, Stimulation (% over basal), CP55,940 + UVI3502 (amygdala): 0 ± 78 % over basal | [35S]GTPγS binding, Stimulation (% over basal) (amygdala): -16 ± 51 % over basal | [35S]GTPγS binding, Stimulation (% over basal), CP55,940 + UVI3502 (cerebellum (gray matter)): 6 ± 23 % over basal | [35S]GTPγS binding, Stimulation (% over basal) (cerebellum (gray matter)): -43 ± 9 % over basal | [35S]GTPγS binding, Stimulation (% over basal), CP55,940 + UVI3502 (cortex): -51 ± 11 % over basal | [35S]GTPγS binding, Stimulation (% over basal) (cortex): -55 ± 9 % over basal | [35S]GTPγS binding, Stimulation (% over basal), CP55,940 + UVI3502 (globus pallidus): 91 ± 104 % over basal | [35S]GTPγS binding, Stimulation (% over basal) (globus pallidus): -46 ± 29 % over basal | [35S]GTPγS binding, Stimulation (% over basal), CP55,940 + UVI3502 (hippocampus dorsal): -36 ± 8 % over basal | [35S]GTPγS binding, Stimulation (% over basal) (hippocampus dorsal): -38 ± 12 % over basal | [35S]GTPγS binding, Stimulation (% over basal), CP55,940 + UVI3502 [1]: -30 ± 37 % over basal | [35S]GTPγS binding, Stimulation (% over basal) [1]: -20 ± 65 % over basal | [35S]GTPγS binding, Stimulation (% over basal), CP55,940 + UVI3502 (striatum): -52 ± 13 % over basal | [35S]GTPγS binding, Stimulation (% over basal) (striatum): -52 ± 18 % over basal | [35S]GTPγS binding, Stimulation (% over basal), CP55,940 + UVI3502 (substantia nigra): 181 ± 128 % over basal | [35S]GTPγS binding, Stimulation (% over basal) (substantia nigra): -58 ± 11 % over basal
